Ends that are not written are not given here.
Tests used:
[1] = system: LPS-stimulated human peripheral blood mononuclear cells (IL1-β); format: cell-based; settings: Table 12, cells stimulated with 10 ng/ml LPS; for IL1β Production: LPS alone 1313 (HH2 derivatives), 1927 (1018 derivatives), 2455 (1002 and hybrid peptides) pg/ml
[2] = system: methicillin resistant Staphylococcus aureus (MRSA) biofilm; settings: approximate peptide concentration […] (around 3 μg/ml); compared to untreated samples
Procedure, shortened: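 Peptide was present from inoculation onward, with bacteria seeded at 1/100 from overnight cultures into BM2 biofilm medium or Luria Broth. Crystal violet staining of surface-attached cells (A595) quantified biofilm reduction at 22–46 h. K. pneumoniae was additionally screened in a real-time Bioflux flow device for some peptides.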

[3] = system: human peripheral blood mononuclear cells (MCP-1); experiment: SPOT-synthesized derivative screen: production of chemokine MCP-1; format: cell-based; settings: Table 12, No LPS, human PBMC, peptide at ~18-24 μM; for MCP1: background subtracted 139 (HH2 derivatives), 170 (1018 derivatives), 242 (1002 and hybrid peptides) pg/ml
Procedure, shortened: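 MCP-1 was quantified by capture ELISA in cleared culture supernatants of treated human peripheral blood mononuclear cells. Cells came from heparinized volunteer blood via Ficoll gradient and were seeded at 0.75 to 1×10^6 cells/ml (37 °C, 5% CO2).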

Substance | Fold change in IL1β relative to no peptide LPS stimulated cells [1] | IL1β Production [1] [pg/mL] | % Biofilm inhibition [2] [%] | Fold increase in MCP1 cf. untreated cells [3] | MCP1 [3] [pg/mL]
1018-K9: single substituted 1018 peptide (VRLIVAVRKWRR-NH2) [Peptide 1018-K9] | 0.23 | 300 | 60 | 1.1 | 15
1018-R5: single substituted 1018 peptide (VRLIRAVRIWRR-NH2) [Peptide 1018-R5] | 1.50 | 1973 | 4 | 0.8 | -41
1018-V11: single substituted 1018 peptide (VRLIVAVRIWVR-NH2) [Peptide 1018-V11] | 0.94 | 1240 | 29 | 1.0 | 2
HH2-I6: single substituted HH2 peptide (VQLRIIVAVIRA-NH2) | 0.75 | 984 | 45 | 8.1 | 1206
1002-W9: single substituted 1002 peptide (VQRWLIVWWIRK-NH2) [Peptide 1002-W9] | 0.05 | 127 | 73 | 1.0 | 12.0
HH2-A6: single substituted HH2 peptide (VQLRIAVAVIRA-NH2) | 1.06 | 1391 | 41 | 1.8 | 137
1018-K7: single substituted 1018 peptide (VRLIVAKRIWRR-NH2) [Peptide 1018-K7] | 0.93 | 1222 | 23 | 1.5 | 92
1018-Q11: single substituted 1018 peptide (VRLIVAVRIWQR-NH2) [Peptide 1018-Q11] | 1.24 | 1625 | 51 | 11 | 1773
1002-G9: single substituted 1002 peptide (VQRWLIVWGIRK-NH2) [Peptide 1002-G9] | 0.05 | 127 | 44 | 2.8 | 444.4
HH2-G9: single substituted HH2 peptide (VQLRIRVAGIRA-NH2) | 1.04 | 1363 | 59 | 3.0 | 342
1018-Q3: single substituted 1018 peptide (VRQIVAVRIWRR-NH2) [Peptide 1018-Q3] | 1.03 | 1359 | 12 | 1.0 | -2
HH2-V11: single substituted HH2 peptide (VQLRIRVAVIVA-NH2) | 1.15 | 1515 | 51 | 5.6 | 788
1002-G5: single substituted 1002 peptide (VQRWGIVWRIRK-NH2) [Peptide 1002-G5] | 0.25 | 621 | 59 | 0.9 | -36.2
1018-G7: single substituted 1018 peptide (VRLIVAGRIWRR-NH2) [Peptide 1018-G7] | 1.23 | 1610 | 47 | 25 | 4098
HH2-W2: single substituted HH2 peptide (VWLRIRVAVIRA-NH2) | 0.98 | 1293 | 70 | 12 | 1802
HH2-L6: single substituted HH2 peptide (VQLRILVAVIRA-NH2) | 0.69 | 901 | 18 | 1.8 | 138
HH2-V8: single substituted HH2 peptide (VQLRIRVVVIRA-NH2) | 0.53 | 691 | 66 | 45 | 7460
HH2-I11: single substituted HH2 peptide (VQLRIRVAVIIA-NH2) | 1.07 | 1402 | 55 | 60 | 9977
HH2-A11: single substituted HH2 peptide (VQLRIRVAVIAA-NH2) | 1.60 | 2105 | 64 | 5.9 | 833
1002-V3: single substituted 1002 peptide (VQVWLIVWRIRK-NH2) [Peptide 1002-V3] | 0.05 | 127 | 49 | 2.5 | 359.1
1002-G11: single substituted 1002 peptide (VQRWLIVWRIGK-NH2) [Peptide 1002-G11] | 0.05 | 127 | 60 | 2.9 | 465.0
1018-R7: single substituted 1018 peptide (VRLIVARRIWRR-NH2) [Peptide 1018-R7] | 1.68 | 2201 | 0 | 1.9 | 161
HH2-I1: single substituted HH2 peptide (IQLRIRVAVIRA-NH2) | 0.84 | 1103 | 73 | 51 | 8573
HH2-V2: single substituted HH2 peptide (VVLRIRVAVIRA-NH2) | 0.97 | 1267 | 77 | 24 | 3945
1018-V8: single substituted 1018 peptide (VRLIVAVVIWRR-NH2) [Peptide 1018-V8] | 0.35 | 463 | 34 | 1.2 | 29
HH2-I8: single substituted HH2 peptide (VQLRIRVIVIRA-NH2) | 0.53 | 701 | 74 | 17 | 2789
1018-L5: single substituted 1018 peptide (VRLILAVRIWRR-NH2) [Peptide 1018-L5] | 0.12 | 162 | 71 | 3.0 | 335
1018-G12: single substituted 1018 peptide (VRLIVAVRIWRG-NH2) [Peptide 1018-G12] | 0.37 | 490 | 53 | 1.0 | 7
1018-K11: single substituted 1018 peptide (VRLIVAVRIWKR-NH2) [Peptide 1018-K11] | 0.13 | 170 | 68 | 9.3 | 1419
1002-R6: single substituted 1002 peptide (VQRWLRVWRIRK-NH2) [Peptide 1002-R6] | 0.25 | 605 | 13 | 1.0 | 1.8

Reference: patent US20190315823A1, “SMALL CATIONIC ANTI-BIOFILM AND IDR PEPTIDES” (priority 2013, published 2019)
